One experiment relates to spiral ganglion neurons. The experiment in a line: In vitro phenotypic screening assay of neurite length in spiral ganglion cultures. Type of experiment: cell-based, mouse. The conditions noted are these: for lowest effective dose for stimulating neurite growth (neurite length dose response) / effect on neurite length: spiral ganglion cultures; for lowest effective dose for stimulating neurite growth (neurite length dose response): cumulative percent histograms of neurite length vs DMSO control, highest dose tested 25 μM for Pravastatin; for effect on neurite length at 10 μM: media containing compound at 10 μM, DMSO negative control, 4 replicate cultures; for effect on neurite length: compound in culture media. The text has this:
The in vitro phenotypic screen for spiral ganglion neurons is designed to identify both survival promoting and neurite promoting compounds. The screening procedure focuses on the survival, neurite initiation and neurite elongation steps of the experimental model (FIG. 5A-C). […] Newborn mouse pups served as a source for preparing primary cultures of the spiral ganglia from 16 cochleas. From these cochleas, 192 cultures in a 384 well plate that enables screening of 45 compounds and 3 controls for each dissection.
The screening approach preferably uses automated imaging and computer assisted data analysis. […] Populations of neurites are measured and graphed as cumulative percent histograms of neurite length. In these graphs, a shift to the right means that the population had longer neurites.
CD-1 mice (Charles River Laboratories, Wilmington Mass. [US]), age newborn, were used for cultures that test neurite length; postnatal day 1-2 mice were used for cultures that test survival. Mice were anesthetized by cooling at −80° C. for 4 minutes and euthanized by aseptic decapitation.
Cultures were prepared by a modification of the procedure previously reported and modified (Whitlon et al., Neuroscience 138, 653-662 (2006); Lie et al., Neuroscience 169, 855-862 (2010); Whitlon et al. Neuroscience 146, 833-840 (2007); Whitlon et al., Neuroscience 161, 227-235 (2009)). To increase the number of cultures produced from one dissecting session while maintaining consistency in the preparations, the number of animals was increased to 8 (16 cochleas, a practical limit) and the volume of the cultures was decreased to 50 μl. Cells derived from the equivalent of […] ganglia were plated in each well. These changes allowed the material from each dissection session to be cultured in 192 wells of a standard 384 well plate. Each dissection session could accommodate 3 controls and 45 compounds in quadruplicate. The cochlear capsule was opened and the tissue was treated with Dispase, 5 units/ml. After washing, the cochlea was removed from its capsule. The cochlear epithelium, spiral ligament and stria were dissected away. […] Both were then diluted in medium and added to the wells 22 hours after plating. Cultures were fixed 24 hours later with 4% paraformaldehyde in 0.1M sodium phosphate buffer, pH 7.2 for 45 minutes. Conditions were tested in quadruplicate. […] Negative controls were the vehicles DMSO (0.17%) and water (0.17%).
Fixed cultures were immunolabeled for the neural βIII tubulin using the mouse monoclonal antibody TuJ1 and Alexa Fluor 594 tagged secondary antibody as described for immunofluorescent labeling (Whitlon et al. Neuroscience 161, 227-235 (2009)). Nuclei were visualized with Nuclear Yellow. The labeled cultures were preserved with one drop of DAKO fluorescent mounting medium in each well.
The immunolabeled 384 well plates were loaded into an Image Xpress automatic imager for image acquisition.

For experiment [1], the system named is PTS noise exposed guinea pigs. The experiment in a line: Guinea pig model of PTS, auditory brainstem response (ABR) thresholds after noise exposure. The following applies: left ear infused with 50 μM Fluvastatin, 250 μL over 28 days by miniosmotic pump, from noise exposure on; hearing measured in contralateral right ear. It is filed as in vivo. An excerpt:
A testing method with a guinea pig model of PTS was developed for this purpose. Compounds were introduced into the left ear of the subject with a cannula attached to a miniosmotic pump. Because the cannula is physically within the cochlea, it had the possibility of interfering with sound transfer in the cochlea, and thereby interfering with auditory brain response (ABR) measurements. For this reason, the compound was delivered via cannula to the left ear, but tested for its effect in the contralateral ear, taking advantage of the connection between cochlear fluids and the cerebral spinal fluid. Animals were subjected to an sound injury causing PTS. Fluvastatin was delivered in vivo to the left ear at 50 times the concentration that was effective for stimulating neurite growth in vitro and ABRs were evaluated in the contralateral, right cochleas. […] The compound was first evaluated for the ability to provide a protective effect from hearing loss attributed to high level noise, wherein the compound was delivered at the same time as the noise exposure and for 4 weeks thereafter. […]
Drug efficiency was tested in guinea pigs, 200-500 g in body weight. […] Baseline cochlear function was determined with auditory brainstem responses. Sound levels to evoke a visual ABR response were determined for pure tones at selected frequencies between 2 and 32 kHz and for acoustic clicks. […]

Entries after “also recorded” stand apart in the source; their conditions may differ. Bounds are passed on as bounds.

With `CC(C)n1c(/C=C/[C@H](O)C[C@H](O)CC(=O)O)c(-c2ccc(F)cc2)c2ccccc21` (stereo in doubt) [Fluvastatin, (3S,5R,6E)-7-[3-(4-fluorophenyl)-1-(propan-2-yl)-1H-indol-2-yl]-3,5-dihydroxyhept-6-enoic acid], the “lowest effective dose for stimulating neurite growth (neurite length dose response)” value (shortened to “lowest effective dose”) in the experiment on spiral ganglion neurons came to 1 µM. The “protection from hearing loss / permanent threshold shift (ABR threshold change)” value in experiment [1] is “effective protection by preventing hearing loss; also recorded: PTS injury could not be induced”. `CC(C)c1c(C(=O)Nc2ccccc2)c(-c2ccccc2)c(-c2ccc(F)cc2)n1CC[C@@H](O)C[C@@H](O)CC(=O)O` [Atorvastatin, (3R,5R)-7-[2-(4-fluorophenyl)-3-phenyl-4-(phenylcarbamoyl)-5-(propan-2-yl)-1H-pyrrol-1-yl]-3,5-dihydroxyheptanoic acid]: the “lowest effective dose” value with spiral ganglion neurons amounted to 10 µM. As to `COCc1c(C(C)C)nc(C(C)C)c(/C=C/[C@@H](O)C[C@@H](O)CC(=O)O)c1-c1ccc(F)cc1` [Cerivastatin], the “effect of geranylgeraniol on the statin's stimulation of neurite length” value in the experiment on spiral ganglion neurons (media containing both statin (Cerivastatin 10 μM or Fluvastatin 5 μM) and geranylgeraniol (10 μM)) is “effectively blocked the stimulatory effect”. Besides, in the experiment with spiral ganglion neurons, the “effect on neurite length at 10 μM” value is given as “increased neurite length” and the “lowest effective dose” value is 1 µM. For the same compound, in the experiment with spiral ganglion neurons (screen of NIH Clinical Collection, FIG. 11A), the “neurite growth compared with positive control H1152” value was “stimulated neurite growth as well as H1152”. For the compound `O=S(=O)(c1cccc2cnccc12)N1CCCNCC1` [Fasudil], the “effect on neurite length” value with spiral ganglion neurons is “stimulated neurite length”. The same measure, in the same setting: then `Cc1cncc2cccc(S(=O)(=O)N3CCCNC[C@@H]3C)c12` [H1152, 4-methyl-5-{[(2S)-2-methyl-1,4-diazepan-1-yl]sulfonyl}isoquinoline], with “stimulate neurite length; also recorded: increased neurite lengths”; and `O=c1[nH]ccc2c(S(=O)(=O)N3CCCNCC3)cccc12` [Hydroxyl Fasudil], with “stimulated neurite length”. On to `CC[C@H](C)C(=O)O[C@H]1C[C@@H](C)C=C2C=C[C@H](C)[C@H](CC[C@@H]3C[C@@H](O)CC(=O)O3)[C@H]21` [Lovastatin, (1S,3R,7S,8S,8aR)-8-{2-[(2R,4R)-4-hydroxy-6-oxooxan-2-yl]ethyl}-3,7-dimethyl-1,2,3,7,8,8a-hexahydronaphthalen-1-yl (2S)-2-methylbutanoate], for which, in the experiment on spiral ganglion neurons, the “lowest effective dose” value is 5 µM. Regarding `O=C(O)C[C@H](O)C[C@H](O)/C=C/c1c(C2CC2)nc2ccccc2c1-c1ccc(F)cc1` [Pitavastatin, (3R,5S,6E)-7-[2-cyclopropyl-4-(4-fluorophenyl)quinolin-3-yl]-3,5-dihydroxyhept-6-enoic acid], the “measured lengths of neurites compared with positive control H1152” value with spiral ganglion neurons (Pitavastatin at 2 μM or higher, H1152 16.5 μM) is given as “as long or longer”. For the same compound, in the experiment on spiral ganglion neurons, the “effect on neurite length” value is reported as “increase neurite length; also recorded: effective up to the highest dose tested” and the “lowest effective dose” value was determined as 2 µM.

`CC[C@H](C)C(=O)O[C@H]1C[C@H](O)C=C2C=C[C@H](C)[C@H](CC[C@@H](O)C[C@@H](O)CC(=O)O)[C@H]21` [Pravastatin]: in the experiment with spiral ganglion neurons, the “lowest effective dose” value is over 25 µM. The same measure, in the same setting: then `CCC(C)(C)C(=O)O[C@H]1C[C@@H](C)C=C2C=C[C@H](C)[C@H](CC[C@@H]3C[C@@H](O)CC(=O)O3)[C@H]21` [Simvastatin, (1S,3R,7S,8S,8aR)-8-{2-[(2R,4R)-4-hydroxy-6-oxooxan-2-yl]ethyl}-3,7-dimethyl-1,2,3,7,8,8a-hexahydronaphthalen-1-yl 2,2-dimethylbutanoate], with 5 µM. For `CC(C)=CCC/C(C)=C/CC/C(C)=C/CC/C(C)=C/CO` [geranylgeraniol], the “effect on neurite length at 10 μM” value in the experiment on spiral ganglion neurons is “no effect upon growth of neurite length”.

For the origin of these results see patent US9517233B2, “Local cochlear application of statins for stimulating neurite regrowth in the cochlea” (Northwestern University, priority 2012, dated 2016).
